The values that follow come from patent US6818618B1, “Inhibition of smooth muscle cell migration by Tenascin-C peptides” (Cedars-Sinai Medical Center, priority 1998, dated 2004).

For one test, the system named is newborn aortic SMCs. Description: Adhesion assay: newborn SMCs on wells coated with the substance. The class given is cell-based, rat. The settings on record: for adhesion activity relative to the Fbg-L domain: peptide coated at 10 μg/ml on tissue culture dishes; for level of adhesion of newborn SMCs to coated substrate: wells coated with 10 μg/ml substrate. The method, then: (§1) Adult Aortic SMCs were cultured as described (12). Newborn (9-day old) aortic SMCs were obtained from Dr. Stephen, M. Schwartz, of University of Washington, and subsequently cultured (13). Briefly, rat aortic SMCs were isolated by enzymatic digestion of rat aorta (Sprague-Dawley, 2 months old, 270 g). Cells were grown in DMEM/F12 media (Gibco) supplemented with 10% fetal bovine serum (Gibco). After reaching confluence, cells (between 3rd and 6th passages) were used for adhesion studies.
(§2) Microtiter plates (Falcon, Becton Dickinson, Oxnard, Calif.) were coated with the respective substrate for one (1) hour at 37° C. Nonspecific sites were blocked with 1 mg/ml BSA in PBS. […] After incubation for 60 min. at 37° C., nonadherent cells were removed with gentle washing with PBS. The number of attached cells were quantified by staining cells with 0.2% crystal violet in 20% methanol, lysing with 1% SDS, and measuring the absorbance at 550 nm (14).
To determine the concentration for the adhesion assays, microtiter plates were coated with increasing concentrations (1-100 μg/ml) of substrates, and the number of adherent cells was quantified. Adhesion of cells to Tenascin-C reached saturation levels at coating concentrations of 10 μg/ml (not shown). Therefore, all the subsequent adhesion assays were performed by coating the wells with a 10 μg/ml substrate.
The active domain of Tenascin-C was mapped using recombinant proteins corresponding to full-length Fbg-L and FN-L domains as well as FN-L subdomains 6-8, A-D, A1A2, and D. The ability of these domains, or subdomains, to interact with newborn SMCs was determined by an adhesion assay, and the results are shown in FIG. 5. In FIG. 5, a microtiter plate was coated with BSA, fibronectin (FN), intact Tenascin-C (TN), and the recombinant proteins corresponding to: the Fbg-L domain (Fbg-L), the entire FN-L repeats (AII), the constitutively spliced repeats 6-8, the alternatively spliced A-D, A1A2, and D domains. An adhesion assay was performed with newborn SMCs. Values shown are from a representative experiment in which triplicates are plotted±SEM.
The ability of the synthetic peptides to directly interact with newborn cells was determined by an adhesion assay. […] In FIG. 8, 96-well plates were coated with solutions containing BSA (C), fibronectin (FN), Tenascin-C (TN), the fibrinogen-like domain (Fbg-L), and synthetic peptides at a concentration of 10 μg/ml in PBS. An adhesion assay was performed with newborn rat SMCs. Tissue culture plates were coated with increasing concentrations of peptides from 0.1 to 10 μg/ml, and the adhesion of newborn cells was measured. Values shown are from a representative experiment in which triplicates are plotted as mean±SEM.

Test [1] concerns adhesion of newborn SMCs to Tenascin-C. Description: Adhesion of newborn SMCs to Tenascin-C-coated wells in the presence of soluble agents. The class given is cell-based, rat. The note with it: for effect on adhesion of SMCs to Tenascin-C (summary statement): concentration not given; for inhibition of attachment of SMCs to Tenascin-C: 0.1 mg/ml GRGDS peptide, higher concentrations did not significantly alter adhesion. The method, then:
as §2
(§3) It has been shown that the interaction of some cells with Tenascin-C is mediated by the RGD motif (20, 23). Therefore, an adhesion assay was used to determine the role of RGD in the interaction between Tenascin-C and SMCs. The specificity of the adhesion was determined by coating the wells with the recombinant 10th-type III repeat of fibronectin (24). In FIG. 2, 96-well plates were coated with either BSA (BSA), Tenascin-C (TN), or the recombinant 10th-type III repeat of fibronectin (10III) as described for FIG. 1. Newborn SMCs were detached, washed once in adhesion buffer and added to various concentrations of the peptide GRGDS. Cells and peptides were then preincubated for 30 min. prior to plating. The values shown are the mean±SEM of triplicate samples. Nonspecific binding to control wells coated with BSA was not subtracted from each value.
(§4) In FIG. 3, 96-well plates were coated with solutions containing intact fibronectin (FN), the recombinant 10th-type III repeat of fibronectin (FN10III), or Tenascin-C (TN). […] The number of attached cells was quantified by a colorimeter. Values shown are from a representative experiment in which triplicates are plotted as mean±SEM.
(§5) In FIG. 4, 96-well plates were coated with either Tenascin-C (TN) or the recombinant tenth type III repeat of fibronectin (10III) as described for FIG. 1. […] Values shown are from the mean±SD of triplicate samples.
To distinguish between these possibilities, the recombinant FN-L proteins were labeled with ^125I, and their ability to coat the tissue culture dishes was compared to the Fbg-L domain. […] To determine whether the binding to tissue culture dishes had influenced the activity of the recombinant proteins, the ability of soluble Fbg-L or FN-L domains and subdomains to inhibit the interaction between intact Tenascin-C and SMCs was examined. […] In FIG. 6, 96-well plates were coated with fibronectin (FN), the recombinant tenth type III repeat of fibronectin (10III), or an intact Tenascin-C molecule (TN). Newborn SMCs were incubated for 15 min. at 37° C. with a solution of 200 μg/ml of a recombinant Fbg-L domain, the entire FN-L domain (FN-L), or the alternatively spliced A-D repeats (AD). […] Adhesion was measured as described above. Values shown are from representative experiments in which triplicates are plotted±SEM.
(§6) In FIG. 8(B), 96-well plates were coated with BSA, intact Tenascin-C (TN) or the fibrinogen-like domain (Fbg-L), and adhesion of newborn cells was measured in the presence of 1 μM synthetic peptides.

Test [2] deals with newborn rat SMCs migration on Tenascin-C substrate. Description: Migration assay (modified Boyden's chamber) on Tenascin-C substrate. The class given is cell-based. The method, then: (§7) Cell migration was measured by a modification of the Boyden's chamber method using microchemotaxis chambers (Neuro Probe Inc.). Polycarbonate filters were coated with 10 μg/ml of substrates overnight at 4° C. Newborn rat SMCs were suspended at a concentration of 10^5 cells/ml in serum-free DMEM supplemented with 1 mg/ml BSA. A volume of 50 μl of cell suspension was placed in the upper chamber, and 30 μl of 10% bovine calf serum in DMEM was placed in the lower chamber. In some experiments, cells were suspended in DMEM supplemented with 0.1 μM of the fibrinogen-like domain (Fbg-L) or 1 μM of peptide VIII before addition to the upper chamber. The chamber was incubated at 37° C. under 5% CO2 in air for 4 hours. The filter was removed, and the cells on the upper side of the filter were scraped off. The SMCs that had migrated to the lower side of the filter were fixed in methanol, stained with Diff-Quick staining solution (Baxter) and counted under a microscope.
(§8) To map the active domain of Tenascin-C that is involved in cell migration, the ability of the recombinant domains to block SMCs migration on a Tenascin-C substrate was determined. […] In FIG. 9, cell migration was measured by a modification of Boyden's chamber. […] Migrating cells were fixed and counted under a microscope. Nine high power fields (HPF) were counted for each triplicate. […]

Test [3] deals with newborn rat SMCs migration on collagen substrate. The experiment in a line: Migration assay (modified Boyden's chamber) on collagen substrate. The class given is cell-based. The settings on record: Fbg-L or 1 μM peptide VIII in upper chamber. The method, then: as §7, §8
The subject of another test is adult rat aortic SMCs. Description: Adhesion assay: adult aortic SMCs on wells coated with the substance. The format is cell-based. The settings on record: for adhesion of adult SMCs to coated substrate: 60 min, crystal violet absorbance. The method, then:
as §1, §2
Interaction between aortic SMCs and Tenascin-C was assessed by an adhesion assay. […] In FIG. 1, 96-well plates were coated with solutions containing intact fibronectin (FN), vitronectin (VN) or Tenascin-C (TN) and incubated with either adult or newborn aortic SMCs. Adhesion is measured by determining absorbance of attached cells after staining with crystal violet. Values shown are from a representative experiment in which triplicates are plotted as mean±SEM.

Test [4] concerns adhesion of newborn SMCs to the recombinant 10th-type III repeat of fibronectin. The experiment in a line: Adhesion of newborn SMCs to the recombinant 10th-type III repeat of fibronectin in the presence of soluble agents. The class given is cell-based, rat. The method, then:
as §2, §3, §4, §5
To distinguish between these possibilities, the recombinant FN-L proteins were labeled with ^125I, and their ability to coat the tissue culture dishes was compared to the Fbg-L domain. […] Adhesion was measured as described above. […]

Test [5] relates to adhesion of newborn SMCs to the Fbg-L domain. The experiment in a line: Adhesion of newborn SMCs to Fbg-L domain-coated wells in the presence of soluble agents. The format is cell-based, rat. The note with it: EDTA or cations; not shown. The method, then: as §2, §6
The subject of test [6] is adhesion of SMCs to peptide VIII. Description: Adhesion of SMCs to peptide VIII-coated wells in the presence of soluble agents. The format is cell-based, rat. The note with it: EDTA or cations; not shown. The method, then: as §2
Setting [7] is: increasing cation concentration.
Where [8] appears, read: various concentrations of cation.

Entries after “also recorded” stand apart in the source; their conditions may differ.

For “peptide VIII: 30 amino acid synthetic peptide located near the C-terminal part of the Fbg-L domain of Tenascin-C, Seq. Id. No. 8 (WYRNCHRVNLMGRYGDNNHSQGVNWFHWKG)”, in the test with newborn aortic SMCs, the “adhesion activity relative to the Fbg-L domain” value was determined as 80% and the “level of adhesion of newborn SMCs to coated substrate” value is listed as “strongly promoting newborn cell adhesion”. In addition, the “effect on adhesion of SMCs to Tenascin-C (summary statement)” value in test [1] is listed as “completely blocked”. The “inhibition of SMCs chemotaxis on Tenascin-C substrate” value in test [2] (0.1 μM Fbg-L or 1 μM peptide VIII in upper chamber, 4 hours) is on record as roughly 70%. Also, the “effect on migration of SMCs on collagen substrate” value in test [3] is “did not interfere”.
With “Tenascin-C: intact Tenascin-C purified from conditioned media of BHK cells overexpressing Tenascin-C”, the “coating concentration at which cell adhesion reached saturation levels” value in the test with newborn aortic SMCs (increasing coating concentrations) was found to be 10 µg/mL. The “adhesion of newborn SMCs to Tenascin-C relative to adult cells” value with newborn aortic SMCs (newborn vs adult SMCs, coated wells) is 3-4 times higher. Besides, in the test with newborn aortic SMCs, the “level of adhesion of newborn SMCs to coated substrate” value was “comparable to the attachment levels observed with fibronectin; also recorded: high compared to the fibronectin”. In addition, the “adhesion of adult SMCs to Tenascin-C relative to attachment to the adhesive proteins (fibronectin, vitronectin)” value with adult rat aortic SMCs (coated wells) was 3-4 times lower. Moreover, in test [2] (filters coated with 10 μg/ml substrate), the “SMCs chemotaxis on coated substrate compared to BSA” value is on record as “stimulated”.
As for `[Mg+2]` [Mg^2+], the “effect on adhesion of SMCs to Tenascin-C (summary statement)” value in test [1] is “promoted”. Moreover, the “increase potential for the interaction between newborn SMCs and Tenascin-C” value in test [1] (in the presence of Mg^2+) is “three-fold”. In addition, the “cation concentration giving maximal cell adhesion to Tenascin-C” value in test [1] (setting [7]) was in the range of 5 to 10 mM. The “effect of cation on newborn SMCs adhesion to Tenascin-C” value in test [1] (setting [8]) is reported as “increased”. Moreover, in test [4] (setting [7]), the “cation concentration giving maximal cell adhesion to the recombinant fibronectin fragment” value lay in the range of 5 to 10 mM. In test [4] (setting [8]), the “effect of cation on newborn SMCs adhesion to the recombinant fibronectin fragment” value is reported as “increased”. In addition, in test [5], the “effect on adhesion of SMCs to the Fbg-L domain” value was “promoted”. For the same molecule, the “effect on adhesion to peptide VIII” value in test [6] is “promoted”.
Consider GRFDS, for which, in test [1] (not shown), the “effect of inactive control peptide on adhesion (compared with GRGDS)” value was “no effect”.
Turning to “IX: 30 amino acid synthetic peptide from the C-terminal part of the Fbg-L domain of Tenascin-C, Seq. Id. No. 9 (FHWKGHEHSIQFAEMKLRPSNFRNLEGRRKRA)”, the “adhesion activity relative to the Fbg-L domain” value in the test with newborn aortic SMCs is on record as 30%.
As to GRGDS, the entries for the “inhibition of attachment of SMCs to Tenascin-C” value in test [1] and in test [1] (listed as RGD peptide) were “approximately 30%” and 30%, respectively. For the same molecule, in test [4] (0.1 mg/ml peptide, 30 min preincubation), the “inhibition of attachment of newborn SMCs to the recombinant fibronectin fragment” value was “complete inhibition”.
Take fibronectin: the “adhesion of adult SMCs to coated substrate” value with adult rat aortic SMCs was “avidly adhered”.

B1: vitronectin: vitronectin matrix protein (protein, UniProt P04004 20-478, looked up)
Vitronectin: DQESCKGRCTEGFNVDKKCQCDELCSYYQSCCTDYTAECKPQVTRGDVFTMPEDEYTVYDDGEEKNNATVHEQVGGPSLTSDLQAQSKGNPEQTPVLKPEEEAPAPEVGASKPEGIDSRPETLHPGRPQPPAEEELCSGKPFDAFTDLKNGSLFAFRGQYCYELDEKAVRPGYPKLIRDVWGIEGPIDAAFTRINCQGKTYLFKGSQYWRFEDGVLDPDYPRNISDGFDGIPDNVDAALALPAHSYSGRERVYFFKGKQYWEYQFQHQPSQEECEGSSLSAVFEHFAMMQRDSWEDIFELLFWGRTSAGTRQPQFISRDWHGVPGQVDAAMAGRIYISGMAPRPSLAKKQRFRHRNRKGYRSQRGHSRGRNQNSRRPSRATWLSLFSSEESNLGANNYDDYRMDWLVPATCEPIQSVFFFSGDKYYRVNLRTRRVDTVDPPYPRSIAQYWLGCPAPGHL
Take B1: in the test with adult rat aortic SMCs, the “adhesion of adult SMCs to coated substrate” value is “avidly adhered”.
